{
  "source": "patent US9700539B2",
  "about": "“Therapeutic application of (Boc)2-creatine” (UNIVERSITA' DEGLI STUDI DI GENOVA, priority 2013, dated 2017)",
  "key": {"creatine kinase enzyme [1]": {"tested_on": "creatine kinase enzyme", "settings": "literature; cited from earlier work"}, "creatine kinase enzyme [2]": {"tested_on": "creatine kinase enzyme", "experiment": "Creatine kinase activity by the coupled enzymatic method (pyruvate kinase/lactate dehydrogenase, NADH at 340 nm)", "format": "biochemical", "settings": "2 mM creatine", "procedure": "The activity of the creatine kinase enzyme was measured by the enzymatic coupling method (Bergmeyer 1974). In this method, the ATP hydrolysis is coupled with the NADH oxidation, which is monitored, by means of a spectrophotometer, by the decrease in absorbance at 340 nm (ε340=6.22 mM^−1 cm^−1).\nThe dosage of the creatine kinase was carried out with the spectrophotometer at 340 nm, following the oxidation of the pyridine coenzyme NADH, which is expressed as a decrease in the absorbance. To be able to carry out the dosage, the reaction of the creatine kinase was combined with two other enzymatic reactions catalyzed respectively by the pyruvate kinase and by the lactate dehydrogenase (Bergmeyer 1974). This method, defined as the coupled method, is necessary because both the substrata and the products of the creatine kinase are not directly visible to the spectrophotometer. In particular, the dosage solution contained the following compounds: 100 mM Tris HCl, pH 7.5, 2 mM MgCl2, 75 mM KCl, 2 mM ATP, 0.5 mM phosphoenolpyruvate, 0.16 mM NADH, 10 IU of pyruvate kinase and of lactate dehydrogenase, in a final volume of 1 ml. The reaction begins by the addition of 2 mM of creatine. The dosage is carried out continuously, i.e. the enzyme activity is followed in real time during the development of the reaction. The dosage trend is monitored by a register connected to the spectrophotometer. The reactions take place in the cuvette, as illustrated in FIG. 1.\nTo verify the inhibiting effect of (Boc)2-creatine, concentrations between 0.25 and 2 mM were added to the dosage solution, before the addition of the creatine.\nTo identify the type of inhibition, the maximum kinetic speed (Vmax) and the Michaelis Menten constant (Km) were measured. To be able to carry out the experiment, for each concentration of (Boc)2-creatine, the dosage was carried out in the presence of different substratum concentrations (creatine). The data were analyzed with the Lineweaver-Burk double-reciprocal plot."}, "[3]": {"tested_on": "slices of mouse hippocampus", "experiment": "Incubation of mouse hippocampus slices with (Boc)2-creatine", "format": "cell-based", "settings": "2 mM, 3 hours at 36° C.", "text": "Of course, high concentrations of (Boc)2-creatine will have a cytotoxic effect. […] Since tumor development is due to an uncontrolled cellular progression, a molecule which can control the main source of cell energy gives a valid means of controlling cell proliferation."}, "[4]": {"tested_on": "tumor cell lines that express a high level of creatine kinase", "settings": "literature; cited from earlier work"}},
  "data": [
    {"compound": "CCCCCC(CCCC)=C([Te]c1ccccc1)C(=O)c1ccccc1", "note": "[3-butyl-1-phenyl-2-(phenyltelluro)oct-en-1-one]", "values": [
      {"measurement": "type of inhibition of creatine kinase", "setting": "creatine kinase enzyme [1]", "value": "competitive inhibitor"}
    ]},
    {"compound": "CN(CC(=O)O)C(=NC(=O)OC(C)(C)C)NC(=O)OC(C)(C)C", "note": "[(Boc)2-creatine]", "values": [
      {"measurement": "inhibition of the creatine kinase", "setting": "creatine kinase enzyme [2]; 0.25 mM (Boc)2-creatine", "value": 21, "unit": "%"},
      {"measurement": "inhibition of the creatine kinase", "setting": "creatine kinase enzyme [2]; 0.5 mM (Boc)2-creatine", "value": 39, "unit": "%"},
      {"measurement": "inhibition of the creatine kinase", "setting": "creatine kinase enzyme [2]; 0.75 mM (Boc)2-creatine", "value": 75, "unit": "%"},
      {"measurement": "maximum inhibition of the creatine kinase", "setting": "creatine kinase enzyme [2]; 1 mM (Boc)2-creatine", "value": 95, "unit": "%"},
      {"measurement": "cytotoxic effect on hippocampus slices (vital signs)", "setting": "[3]", "value": "show no vital signs"}
    ]},
    {"compound": "NC(=O)CI", "note": "[Iodoacetamide]", "values": [
      {"measurement": "type of inhibition of creatine kinase", "setting": "creatine kinase enzyme [1]", "value": "complete and irreversible inhibition"}
    ]},
    {"compound": "N=C1NCCN1CC(=O)O", "note": "[cyclocreatine, 1-carboxymethyl-2-iminoimidazolidine]", "values": [
      {"measurement": "inhibition of tumor cell lines", "setting": "[4]", "value": "suitable for inhibiting tumor cell lines that express a high level of creatine kinase"}
    ]}
  ]
}
